According to PMC12136037, “Type II kinase inhibitors that target Parkinson’s disease–associated LRRK2” (Science Advances, 2025):
Where “and” joins values, the source holds several entries; their conditions need not be identical. Equal entries are not always repeated. Where two headings read alike, the source gives them in different places.

Experiments:
[1] = target: T1, ~100 representative kinases (Homo sapiens, UniProt Q9BVS4); test: DSF 100 kinase selectivity screen; format: binding; settings: Protein RIOK2; DSF; average of three replicates;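 also: compound tested at 20 µM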
T1 construct: Recombinant protein kinase domains with a concentration of 2 μM
In short: (§1)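 Each kinase domain, at 2 μM, is mixed with 20 μM test compound and SYPRO Orange in Hepes (20 mM, pH 7.5) with 500 mM NaCl. Temperature is then raised at 3°C/min and fluorescence-monitored unfolding yields the melting temperature change, ΔTm in degrees Celsius.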

[2] = target: T2, ~100 representative kinases (Homo sapiens, UniProt Q9UK32); test: DSF 100 kinase selectivity screen; format: binding; settings: Protein RPS6KA6; DSF; average of three replicates;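 also: compound tested at 20 µM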
T2 construct: Recombinant protein kinase domains with a concentration of 2 μM
In short: as §1

G2019S LRRK2 = target: T3, G2019S LRRK2 (Homo sapiens, UniProt Q5S007, G2019S); test: Western blot of Rab8a phosphorylation in 293T cells transfected with G2019S LRRK2 and GFP-Rab8a; format: cell-based; settings: for inhibition of Rab8a phosphorylation by wild-type and G2019S LRRK2: 293T cells; for pRab8/Rab8/LRRK2 normalized to DMSO, Mean / pRab8/Rab8/LRRK2 normalized to DMSO: GFP-11 tagged G2019S LRRK2, 5 μM; for pRab8/Rab8/LRRK2 normalized to DMSO, Mean: 4 replicates; for pRab8/Rab8/LRRK2 normalized to DMSO: individual blots, normalized to WT DMSO (G2019S DMSO mean 2.25334)
T3 construct: The three constructs used in this study are indicated: full-length LRRK2, LRRK2^RCKW, and LRRK2^KW
Protocol: For all in cell kinase assays, after 48 hours, transfected cells were treated with either DMSO (control) or the indicated inhibitors for 4 hours at 37°C and 5% CO2. Following treatments, cells were washed three times with ice cold PBS. Cells were then lysed in ice cold radioimmunoprecipitation assay (RIPA) lysis buffer [50 mM tris (pH 8.0), 150 mM NaCl, 1% Triton X-100, 0.1% SDS, 0.5% sodium deoxycholate, and 1 mM DTT] in the presence of complete mini EASYpack protease inhibitor cocktail and the PhosSTOP EASYpack phosphatase inhibitor cocktail (Roche). Resuspended and lysed cells were clarified by centrifugation at 13,000g for 15 min at 4°C. […] The membrane was blocked in 5% milk in 1× Tris-buffered saline (TBS) [20 mM tris (pH 8.0) and 150 mM NaCl] for 1 hour shaking at room temperature. […] Membranes were then washed three times in 1× TBS-T before imaging on Li-COR Odyssey CLx controlled by Imaging Studio software (www.licorbio.com/image-studio, RRID:SCR_015795). […] The signal intensity of each band was assessed using the Analyze>Gels tool. The band intensity for phosphorylated LRRK2 was measured and compared to total LRRK2 levels (run under identical conditions on a separate gel). Band intensity for phosphorylated Rab7 or Rab8a was measured and compared against total GFP-Rab7 or GFP-Rab8a (using anti-GFP antibody) and LRRK1/LRRK2 levels as appropriate. Comparative statistical analysis of phosphorylation levels was analyzed using a one-way analysis of variance (ANOVA) and corrected using Tukey’s multiple comparisons test in GraphPad Prism 10 (www.graphpad.com/, RRID:SCR_002798).

STK10 = target: T4, STK10 (Homo sapiens, UniProt O94804); test: nanoBRET off-target validation; format: cell-based
T4 construct: host or cells: HEK293T (ATCC CRL-3216)
Protocol: (§2) The assay was performed as described previously ([61]). In brief, full-length kinases as listed in table S6 were obtained as plasmids cloned in frame with terminal NanoLuc-fusion (gift from Promega; table S6). […] Serially diluted inhibitor and corresponding tracer as listed in table S6 at the Tracer KD concentration taken from TracerDB (tracerdb.org) ([62]) were pipetted into white 384-well plates (Greiner, 781207) using an ECHO acoustic dispenser (Labcyte). The corresponding protein-transfected cells were added and reseeded at a density of 2 × 10^5 cells/ml after trypsinization and resuspending in Opti-MEM without phenol red (Life Technologies). The system was allowed to equilibrate for 3 hours at 37°C/5% CO2 before bioluminescence resonance energy transfer (BRET) measurements. To measure BRET, NanoBRET NanoGlo Substrate + extracellular NanoLuc Inhibitor (Promega, N2540) was added as per the manufacturer’s protocol, and filtered luminescence was measured on a PHERAstar plate reader (BMG Labtech) equipped with a luminescence filter pair [450-nm BP filter (donor) and 610-nm LP filter (acceptor)]. […] (For step-by-step protocol, see www.eubopen.org/sites/www.eubopen.org/files/attachments/2021/NanoBRET-IC50_v1_0.pdf.)

MAPK14 = target: T5, MAPK14 (Homo sapiens, UniProt Q16539); test: nanoBRET off-target validation; format: cell-based
T5 construct: host or cells: HEK293T (ATCC CRL-3216)
Protocol: as §2

[3] = in cellulo nanoBRET, 293T cells

T4 sequence (O94804 whole entry): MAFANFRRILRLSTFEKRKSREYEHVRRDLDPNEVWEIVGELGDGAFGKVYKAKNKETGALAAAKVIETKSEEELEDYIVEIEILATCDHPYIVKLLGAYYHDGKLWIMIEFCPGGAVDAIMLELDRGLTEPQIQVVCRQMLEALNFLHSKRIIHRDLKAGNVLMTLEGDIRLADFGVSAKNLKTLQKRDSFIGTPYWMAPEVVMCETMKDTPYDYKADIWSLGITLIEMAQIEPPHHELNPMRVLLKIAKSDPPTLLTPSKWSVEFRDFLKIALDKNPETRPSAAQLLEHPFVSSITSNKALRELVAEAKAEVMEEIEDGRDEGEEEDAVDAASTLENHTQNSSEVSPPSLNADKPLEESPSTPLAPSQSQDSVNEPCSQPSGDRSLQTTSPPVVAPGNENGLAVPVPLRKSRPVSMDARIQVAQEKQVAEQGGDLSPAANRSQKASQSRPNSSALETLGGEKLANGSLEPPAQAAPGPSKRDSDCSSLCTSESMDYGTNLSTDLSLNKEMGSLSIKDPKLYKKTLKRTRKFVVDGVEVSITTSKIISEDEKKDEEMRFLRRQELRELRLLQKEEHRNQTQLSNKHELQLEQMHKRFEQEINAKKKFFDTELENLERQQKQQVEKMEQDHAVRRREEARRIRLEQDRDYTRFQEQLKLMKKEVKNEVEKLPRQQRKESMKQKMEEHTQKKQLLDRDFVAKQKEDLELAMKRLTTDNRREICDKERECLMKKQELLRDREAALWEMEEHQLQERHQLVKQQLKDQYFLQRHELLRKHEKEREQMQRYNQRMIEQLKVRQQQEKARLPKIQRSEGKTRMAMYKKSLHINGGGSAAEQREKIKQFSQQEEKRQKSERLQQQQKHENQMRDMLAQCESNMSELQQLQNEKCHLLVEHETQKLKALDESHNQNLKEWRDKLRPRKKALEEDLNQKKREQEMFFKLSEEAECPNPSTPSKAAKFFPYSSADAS
T5 sequence (Q16539 whole entry): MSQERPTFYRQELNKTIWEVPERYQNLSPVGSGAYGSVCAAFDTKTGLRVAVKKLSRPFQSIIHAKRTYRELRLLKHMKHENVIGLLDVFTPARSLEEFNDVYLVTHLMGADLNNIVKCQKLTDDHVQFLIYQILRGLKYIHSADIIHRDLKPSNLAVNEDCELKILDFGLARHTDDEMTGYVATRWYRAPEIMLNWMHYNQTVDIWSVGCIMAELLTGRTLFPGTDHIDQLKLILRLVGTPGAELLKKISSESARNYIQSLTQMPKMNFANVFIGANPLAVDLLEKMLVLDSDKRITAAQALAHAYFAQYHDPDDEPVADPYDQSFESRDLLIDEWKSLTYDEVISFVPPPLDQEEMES
T3 sequence (Q5S007 whole entry G2019S): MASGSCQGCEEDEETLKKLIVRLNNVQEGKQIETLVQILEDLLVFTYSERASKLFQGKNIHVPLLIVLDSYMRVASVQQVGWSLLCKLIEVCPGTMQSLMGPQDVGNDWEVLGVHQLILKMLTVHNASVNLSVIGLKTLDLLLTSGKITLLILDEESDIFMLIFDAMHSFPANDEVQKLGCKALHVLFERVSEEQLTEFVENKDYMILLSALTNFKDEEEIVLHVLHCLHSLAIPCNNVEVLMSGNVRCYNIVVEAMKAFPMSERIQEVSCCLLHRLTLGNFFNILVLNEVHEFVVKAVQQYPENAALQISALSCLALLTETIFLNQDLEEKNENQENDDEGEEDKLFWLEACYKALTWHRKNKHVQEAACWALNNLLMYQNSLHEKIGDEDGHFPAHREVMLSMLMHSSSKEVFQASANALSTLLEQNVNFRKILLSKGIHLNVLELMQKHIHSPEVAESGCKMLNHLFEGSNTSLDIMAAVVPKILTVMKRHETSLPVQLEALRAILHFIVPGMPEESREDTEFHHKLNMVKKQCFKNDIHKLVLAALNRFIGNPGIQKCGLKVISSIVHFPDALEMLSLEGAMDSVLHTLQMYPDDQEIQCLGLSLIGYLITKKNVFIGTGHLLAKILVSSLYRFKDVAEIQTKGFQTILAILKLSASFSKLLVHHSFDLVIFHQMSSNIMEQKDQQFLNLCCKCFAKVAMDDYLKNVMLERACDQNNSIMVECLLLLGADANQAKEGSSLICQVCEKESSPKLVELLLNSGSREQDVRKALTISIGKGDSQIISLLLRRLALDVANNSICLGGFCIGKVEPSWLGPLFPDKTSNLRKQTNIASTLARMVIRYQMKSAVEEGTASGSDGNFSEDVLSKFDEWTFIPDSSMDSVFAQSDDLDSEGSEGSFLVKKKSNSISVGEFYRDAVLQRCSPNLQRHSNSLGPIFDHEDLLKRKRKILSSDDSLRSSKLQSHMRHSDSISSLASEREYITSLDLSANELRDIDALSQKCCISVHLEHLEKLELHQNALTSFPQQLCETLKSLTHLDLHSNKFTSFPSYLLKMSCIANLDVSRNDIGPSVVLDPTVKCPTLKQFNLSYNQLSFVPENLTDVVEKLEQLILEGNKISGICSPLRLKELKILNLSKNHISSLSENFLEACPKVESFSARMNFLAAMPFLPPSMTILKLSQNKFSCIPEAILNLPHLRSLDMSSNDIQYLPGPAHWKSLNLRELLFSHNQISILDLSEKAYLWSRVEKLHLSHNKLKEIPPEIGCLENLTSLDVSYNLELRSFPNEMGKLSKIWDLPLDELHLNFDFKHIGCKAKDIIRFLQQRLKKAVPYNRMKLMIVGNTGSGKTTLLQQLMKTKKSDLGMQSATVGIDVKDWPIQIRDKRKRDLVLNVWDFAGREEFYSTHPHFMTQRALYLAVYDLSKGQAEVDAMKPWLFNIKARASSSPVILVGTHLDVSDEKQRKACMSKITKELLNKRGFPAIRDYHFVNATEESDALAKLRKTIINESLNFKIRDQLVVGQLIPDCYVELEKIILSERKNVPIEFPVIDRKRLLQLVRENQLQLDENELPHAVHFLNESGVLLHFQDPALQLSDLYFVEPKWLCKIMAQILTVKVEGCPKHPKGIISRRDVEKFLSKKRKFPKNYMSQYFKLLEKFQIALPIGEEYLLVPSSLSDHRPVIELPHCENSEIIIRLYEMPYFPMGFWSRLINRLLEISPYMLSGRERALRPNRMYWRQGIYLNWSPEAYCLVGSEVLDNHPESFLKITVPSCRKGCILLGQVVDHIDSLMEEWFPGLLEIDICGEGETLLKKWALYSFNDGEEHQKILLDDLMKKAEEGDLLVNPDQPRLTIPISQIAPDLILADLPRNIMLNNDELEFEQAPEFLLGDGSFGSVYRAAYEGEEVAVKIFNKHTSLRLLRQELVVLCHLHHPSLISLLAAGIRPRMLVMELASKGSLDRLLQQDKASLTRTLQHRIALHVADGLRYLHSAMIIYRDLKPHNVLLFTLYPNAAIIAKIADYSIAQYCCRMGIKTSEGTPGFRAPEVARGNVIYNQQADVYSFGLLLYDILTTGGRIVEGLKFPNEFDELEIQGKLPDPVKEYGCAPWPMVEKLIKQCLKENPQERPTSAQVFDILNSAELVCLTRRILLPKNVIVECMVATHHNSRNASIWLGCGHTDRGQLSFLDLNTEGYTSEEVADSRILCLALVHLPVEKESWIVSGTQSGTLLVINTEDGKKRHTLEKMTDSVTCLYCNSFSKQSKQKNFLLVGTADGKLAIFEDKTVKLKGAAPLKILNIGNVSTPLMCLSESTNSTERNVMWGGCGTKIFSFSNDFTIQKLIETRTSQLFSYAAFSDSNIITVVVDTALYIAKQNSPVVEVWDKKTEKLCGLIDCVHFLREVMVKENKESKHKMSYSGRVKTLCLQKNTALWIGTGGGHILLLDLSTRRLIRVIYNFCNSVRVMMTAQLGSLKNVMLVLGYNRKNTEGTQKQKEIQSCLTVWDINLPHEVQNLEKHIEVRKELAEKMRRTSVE
T1 sequence (Q9BVS4 whole entry, the tested form may be a part): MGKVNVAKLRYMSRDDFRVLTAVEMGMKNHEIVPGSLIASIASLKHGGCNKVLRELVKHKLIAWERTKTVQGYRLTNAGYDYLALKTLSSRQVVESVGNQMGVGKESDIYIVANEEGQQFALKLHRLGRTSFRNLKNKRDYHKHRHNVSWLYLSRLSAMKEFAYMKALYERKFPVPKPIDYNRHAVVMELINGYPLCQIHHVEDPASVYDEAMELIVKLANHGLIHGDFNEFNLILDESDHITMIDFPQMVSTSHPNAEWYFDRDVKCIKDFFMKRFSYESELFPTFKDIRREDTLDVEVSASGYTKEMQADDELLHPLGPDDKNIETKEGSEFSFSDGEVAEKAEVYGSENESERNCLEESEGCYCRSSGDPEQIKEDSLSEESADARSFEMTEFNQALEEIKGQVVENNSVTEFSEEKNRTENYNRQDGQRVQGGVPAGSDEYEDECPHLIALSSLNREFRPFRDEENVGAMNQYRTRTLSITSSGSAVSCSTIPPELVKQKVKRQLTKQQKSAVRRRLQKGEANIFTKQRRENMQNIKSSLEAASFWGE

Cc1ccc(C(=O)Nc2ccc(CN3CCN(C)CC3)c(C(F)(F)F)c2)cc1C#Cc1c[nH]c2ncnc(N3CCOCC3)c12 [Compound 1]
dTm [1]: 1.81 K
dTm [2]: -0.02 K

CCSc1nc(NC)c2c(-c3cccc(NC(=O)Nc4cc(C(C)(C)C)nn4-c4ccc(C)cc4)c3)c[nH]c2n1 [Compound 32]
inhibition of Rab8a phosphorylation by wild-type and G2019S LRRK2 (G2019S LRRK2): inhibited phosphorylation of Rab8a by both the wild-type and mutant kinase
pRab8/Rab8/LRRK2 normalized to DMSO, Mean (G2019S LRRK2): 0.8793
pRab8/Rab8/LRRK2 normalized to DMSO (G2019S LRRK2; listed as RN341): 0.923 and 1.39 and 0.7952 and 0.4091
nanoBRET response normalized to 0% (no tracer) and 100% (no inhibitor) control (STK10; STK10, inhibitor 8 nM, two replicates, listed as RN341, 0.008 µM): 93.5752%
remaining activity at 0.008 µM (STK10; STK10, inhibitor 8 nM, two replicates, read-out: nanoBRET response normalized to 0% (no tracer) and 100% (no inhibitor) control): 98.7%
nanoBRET response normalized to 0% (no tracer) and 100% (no inhibitor) control (STK10; STK10, inhibitor 16 nM, two replicates, listed as RN341, 0.016 µM): 98.653%
remaining activity at 0.016 µM (STK10; STK10, inhibitor 16 nM, two replicates, read-out: nanoBRET response normalized to 0% (no tracer) and 100% (no inhibitor) control): 95%
nanoBRET response normalized to 0% (no tracer) and 100% (no inhibitor) control (STK10; STK10, inhibitor 50 nM, two replicates, listed as RN341, 0.05 µM): 90.2983%
remaining activity at 0.05 µM (STK10; STK10, inhibitor 50 nM, two replicates, read-out: nanoBRET response normalized to 0% (no tracer) and 100% (no inhibitor) control): 93.4%
nanoBRET response normalized to 0% (no tracer) and 100% (no inhibitor) control (STK10; STK10, inhibitor 250 nM, two replicates, listed as RN341, […]): 75.9451%
remaining activity at […] (STK10; STK10, inhibitor 250 nM, two replicates, read-out: nanoBRET response normalized to 0% (no tracer) and 100% (no inhibitor) control): 77.3%
nanoBRET response normalized to 0% (no tracer) and 100% (no inhibitor) control (STK10; STK10, inhibitor 500 nM, two replicates, listed as RN341, 0.5 µM): 59.4137%
remaining activity at 0.5 µM (STK10; STK10, inhibitor 500 nM, two replicates, read-out: nanoBRET response normalized to 0% (no tracer) and 100% (no inhibitor) control): 61.4%
nanoBRET response normalized to 0% (no tracer) and 100% (no inhibitor) control (STK10; STK10, inhibitor 2500 nM, two replicates, listed as RN341, […]): 44.5595%
remaining activity at […] (STK10; STK10, inhibitor 2500 nM, two replicates, read-out: nanoBRET response normalized to 0% (no tracer) and 100% (no inhibitor) control): 60.9%
nanoBRET response normalized to 0% (no tracer) and 100% (no inhibitor) control (STK10; STK10, inhibitor 5000 nM, two replicates, listed as RN341, 5 µM): 40.1132%
remaining activity at 5 µM (STK10; STK10, inhibitor 5000 nM, two replicates, read-out: nanoBRET response normalized to 0% (no tracer) and 100% (no inhibitor) control): 58.5%
nanoBRET response normalized to 0% (no tracer) and 100% (no inhibitor) control (STK10; STK10, inhibitor 25000 nM, two replicates, listed as RN341, 25 µM): 8.0832%
remaining activity at 25 µM (STK10; STK10, inhibitor 25000 nM, two replicates, read-out: nanoBRET response normalized to 0% (no tracer) and 100% (no inhibitor) control): 6.79%
EC50 (STK10; [3]): < 5000 nM and 1500 nM
nanoBRET response normalized to 0% (no tracer) and 100% (no inhibitor) control (MAPK14; MAPK14, inhibitor 8 nM, two replicates, listed as RN341, 0.008 µM): 98.3554%
remaining activity at 0.008 µM (MAPK14; MAPK14, inhibitor 8 nM, two replicates, read-out: nanoBRET response normalized to 0% (no tracer) and 100% (no inhibitor) control): 100%
nanoBRET response normalized to 0% (no tracer) and 100% (no inhibitor) control (MAPK14; MAPK14, inhibitor 16 nM, two replicates, listed as RN341, 0.016 µM): 103.532%
remaining activity at 0.016 µM (MAPK14; MAPK14, inhibitor 16 nM, two replicates, read-out: nanoBRET response normalized to 0% (no tracer) and 100% (no inhibitor) control): 96.2%
nanoBRET response normalized to 0% (no tracer) and 100% (no inhibitor) control (MAPK14; MAPK14, inhibitor 50 nM, two replicates, listed as RN341, 0.05 µM): 95.4254%
remaining activity at 0.05 µM (MAPK14; MAPK14, inhibitor 50 nM, two replicates, read-out: nanoBRET response normalized to 0% (no tracer) and 100% (no inhibitor) control): 90.1%
nanoBRET response normalized to 0% (no tracer) and 100% (no inhibitor) control (MAPK14; MAPK14, inhibitor 250 nM, two replicates, listed as RN341, […]): 83.4876%
remaining activity at […] (MAPK14; MAPK14, inhibitor 250 nM, two replicates, read-out: nanoBRET response normalized to 0% (no tracer) and 100% (no inhibitor) control): 73.2%
nanoBRET response normalized to 0% (no tracer) and 100% (no inhibitor) control (MAPK14; MAPK14, inhibitor 500 nM, two replicates, listed as RN341, 0.5 µM): 52.7705%
remaining activity at 0.5 µM (MAPK14; MAPK14, inhibitor 500 nM, two replicates, read-out: nanoBRET response normalized to 0% (no tracer) and 100% (no inhibitor) control): 57.4%
nanoBRET response normalized to 0% (no tracer) and 100% (no inhibitor) control (MAPK14; MAPK14, inhibitor 2500 nM, two replicates, listed as RN341, […]): 49.0355%
remaining activity at […] (MAPK14; MAPK14, inhibitor 2500 nM, two replicates, read-out: nanoBRET response normalized to 0% (no tracer) and 100% (no inhibitor) control): 48.5%
nanoBRET response normalized to 0% (no tracer) and 100% (no inhibitor) control (MAPK14; MAPK14, inhibitor 5000 nM, two replicates, listed as RN341, 5 µM): 40.5445%
remaining activity at 5 µM (MAPK14; MAPK14, inhibitor 5000 nM, two replicates, read-out: nanoBRET response normalized to 0% (no tracer) and 100% (no inhibitor) control): 48.2%
nanoBRET response normalized to 0% (no tracer) and 100% (no inhibitor) control (MAPK14; MAPK14, inhibitor 25000 nM, two replicates, listed as RN341, 25 µM): 17.1717%
remaining activity at 25 µM (MAPK14; MAPK14, inhibitor 25000 nM, two replicates, read-out: nanoBRET response normalized to 0% (no tracer) and 100% (no inhibitor) control): 25.4%
EC50 (MAPK14; [3]): < 5000 nM and 1700 nM

Cc1ccc(-n2nc(C(C)(C)C)cc2NC(=O)Nc2cccc(-c3c[nH]c4nc(Cl)nc(N5CCOCC5)c34)c2)cc1 [Compound 30]
inhibition of Rab8a phosphorylation by wild-type and G2019S LRRK2 (G2019S LRRK2): inhibited phosphorylation of Rab8a by both the wild-type and mutant kinase
pRab8/Rab8/LRRK2 normalized to DMSO, Mean (G2019S LRRK2): 0.5785
pRab8/Rab8/LRRK2 normalized to DMSO (G2019S LRRK2; listed as RN277): 0.5672 and 0.4996 and 1.119 and 0.1285
